Tests used:
[1] = target: T1, PAK4 kinase activity in whole cells (TR-293-KDG, modified HEK 293) (Homo sapiens, UniProt O96013); test: PAK4 cellular assay: sandwich ELISA of PAK4-dependent phosphorylation of GEF-H1b in TR-293-KDG cells; type: cell-based; conditions: 3-hour exposure
T1 construct: engineered to overexpress both GEF-H1b and the kinase domain (KD) of PAK4; expressed in transfected cells; host or cells: TR-293-KDG (modified HEK 293, Trex system, Invitrogen)
Description: A sandwich ELISA method was used to measure the PAK4 kinase activity in whole cells. The level of PAK4-dependent phosphorylation of GEF-H1b can be determined by monitoring the binding of a phosphospecific antibody to GEF-H1b. […] The KD of PAK4 is inducible in this cell line by tetracycline (Trex system, Invitrogen). […] To establish a phosphorylation event on GEF-HL, cells are induced with doxycycline to express the PAK4 KD. […] Candidate substance effect is measured as the ability to block this phosphorylation event.
ELISA plate was prepared by pre-coating the plates with a capture antibody (α-HA-tag mouse monoclonal antibody), blocked with BSA, and washed in 0.1% tween 20 in tris-buffered saline (TBST). […] Cells were then lysed with a modified RIPA buffer supplemented with protease inhibitors. […] Between all subsequent steps plates were washed 4 times with TBST. Detection antibody (recognizing the phospho-specific eptitope on GEF-H1b) was added for 1 hour, followed by addition of an enzyme linked goat α-rabbit secondary antibody for 45 minutes. […] EC50 values were calculated by sigmoid curve fitting using a four-parameter analysis.

[2] = target: T2, PAK4 Kinase domain (PAK4 KD) (Homo sapiens, UniProt O96013); test: PAK4 kinase domain enzymatic assay (PK/LDH-coupled, Ki); type: biochemical; conditions: for Ki: PAK4 Kinase Domain
T2 construct: Cloning, expression, and purification of recombinant PAK4 Kinase domain (PAK4 KD); His tag (pET28a(+)/pET24a(+), Ni-NTA purification) (N, cleaved yes); GST (pGST4.5, glutathione column) (N, cleaved yes); made in house; host or cells: E. coli BL21(DE3)
T2 sequence (O96013 321-572 limits assumed): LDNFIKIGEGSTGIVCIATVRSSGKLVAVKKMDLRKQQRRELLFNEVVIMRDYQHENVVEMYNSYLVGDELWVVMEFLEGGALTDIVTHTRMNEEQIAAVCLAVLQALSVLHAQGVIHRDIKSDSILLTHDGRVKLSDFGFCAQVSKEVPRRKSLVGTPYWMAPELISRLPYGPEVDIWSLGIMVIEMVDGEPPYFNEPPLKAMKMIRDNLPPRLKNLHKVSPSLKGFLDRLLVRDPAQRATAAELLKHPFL

T1 sequence (O96013 321-572 limits assumed): as above

Compound | EC50 [1] [nM] | Ki [2] [nM] | inhibition at 1 µM [2] [%]
3-[(2,4-difluorobenzoyl)amino]-N-[(1S)-2-(dimethylamino)-1-phenylethyl]-6,6-dimethyl-4,6-dihydropyrrolo[3,4-c]pyrazole-5(1H)-carbox- amide [Example 49] | 90.8 | 193 | 
CC1(C)c2[nH]nc(NC(=O)c3cccs3)c2CN1C(=O)N[C@H]1C[C@@H]1c1ccccc1 (relative stereo) [Example 98, 6,6-dimethyl-N-[trans-2-phenylcyclopropyl]-3-[(2-thienylcarbonyl)amino]-4,6-dihydropyrrolo[3,4-c]pyrazole-5(1H)-carboxamide] | 1080 | 19.5 | 
CC1(C)c2[nH]nc(NC(=O)[C@@H]3C[C@H]3c3ccccc3)c2CN1C(=O)N[C@@H]1C[C@H]1c1ccccc1 (relative stereo) [Example 108, 6,6-dimethyl-N-[trans-2-phenylcyclopropyl]-3-({[trans-2-phenylcyclopropyl]-carbonyl}amino)-4,6-dihydropyrrolo[3,4-c]pyrazole-5(1H)-carboxamide] | 1150 | 70 | 
CN(C)CC(OC(=O)N1Cc2c(n[nH]c2NC(=O)C2CCCO2)C1(C)C)c1cccc(F)c1 (single isomer, unassigned) [Example 83A] | 560 |  | 
CN(C)CC(OC(=O)N1Cc2c(n[nH]c2NC(=O)C2CCCO2)C1(C)C)c1cccc(F)c1 (single isomer, unassigned) [Example 83B] | 5 | 36.2 | 
CN(C)CC(OC(=O)N1Cc2c(n[nH]c2NC(=O)C2CCCO2)C1(C)C)c1cccc(F)c1 (single isomer, unassigned) [Example 84A] | 16 | 70 | 
CN(C)CC(OC(=O)N1Cc2c(n[nH]c2NC(=O)C2CCCO2)C1(C)C)c1cccc(F)c1 (single isomer, unassigned) [Example 84B] | 396 |  | 
CN(C)C[C@@H](OC(=O)N1Cc2c(NC(=O)c3ccccc3F)n[nH]c2C1(C)C)c1ccccc1 [Example 3, (1S)-2-(dimethylamino)-1-phenylethyl 3-[(2-fluorobenzoyl)amino]-6,6-dimethyl-4,6-dihydropyrrolo[3,4-c]pyrazole-5(1H)-carboxylate] | 50 | 42.1 | 
CN(C)C[C@@H](OC(=O)N1Cc2c(NC(=O)c3ccc(F)cc3F)n[nH]c2C1(C)C)c1ccccc1 [Example 4, (1S)-2-(dimethylamino)-1-phenylethyl 3-[(2,4-difluorobenzoyl)amino]-6,6-dimethyl-4,6-dihydropyrrolo[3,4-c]pyrazole-5(1H)-carboxylate] | 14.6 | 68 | 
CN(C)C[C@@H](OC(=O)N1Cc2c(NC(=O)c3ccc(C(F)(F)F)cc3)n[nH]c2C1(C)C)c1ccccc1 [Example 5] | 271 | 14.4 | 
CN(C)C[C@@H](OC(=O)N1Cc2c(NC(=O)c3ccccn3)n[nH]c2C1(C)C)c1ccccc1 [Example 6, (1S)-2-(dimethylamino)-1-phenylethyl 6,6-dimethyl-3-[(pyridin-2-ylcarbonyl)amino]-4,6-dihydropyrrolo[3,4-c]pyrazole-5(1H)-carboxylate] | 27.9 | 30.9 | 
CC(=O)Nc1n[nH]c2c1CN(C(=O)O[C@H](CN(C)C)c1ccccc1)C2(C)C [Example 7, (1S)-2-(dimethylamino)-1-phenylethyl 3-(acetylamino)-6,6-dimethyl-4,6-dihydropyrrolo[3,4-c]pyrazole-5(1H)-carboxylate] | 230 | 314 | 
CC(C)C(=O)Nc1n[nH]c2c1CN(C(=O)O[C@H](CN(C)C)c1ccccc1)C2(C)C [Example 8, (1S)-2-(dimethylamino)-1-phenylethyl 3-(isobutyrylamino)-6,6-dimethyl-4,6-dihydropyrrolo[3,4-c]pyrazole-5(1H)-carboxylate] | 7.4 | 124 | 
CN(C)C[C@@H](OC(=O)N1Cc2c(NC(=O)C3CC3)n[nH]c2C1(C)C)c1ccccc1 [Example 9, (1S)-2-(dimethylamino)-1-phenylethyl 3-[(cyclopropylcarbonyl)amino]-6,6-dimethyl-4,6-dihydropyrrolo[3,4-c]pyrazole-5(1H)-carboxylate] | 13.3 | 96.4 | 
CN(C)C[C@@H](OC(=O)N1Cc2c(NC(=O)C(C)(C)C)n[nH]c2C1(C)C)c1ccccc1 [Example 10, (1S)-2-(dimethylamino)-1-phenylethyl 3-[(2,2-dimethylpropanoyl)amino]-6,6-dimethyl-4,6-dihydropyrrolo[3,4-c]pyrazole-5(1H)-carboxylate] | 7.2 | 75 | 
CN(C)C[C@@H](OC(=O)N1Cc2c(NC(=O)C3CCC3)n[nH]c2C1(C)C)c1ccccc1 [Example 11, (1S)-2-(dimethylamino)-1-phenylethyl 3-[(cyclobutylcarbonyl)amino]-6,6-dimethyl-4,6-dihydropyrrolo[3,4-c]pyrazole-5(1H)-carboxylate] | 15.7 | 101 | 
CN(C)C[C@@H](OC(=O)N1Cc2c(NC(=O)C3CCCC3)n[nH]c2C1(C)C)c1ccccc1 [Example 12, (1S)-2-(dimethylamino)-1-phenylethyl 3-[(cyclopentylcarbonyl)amino]-6,6-dimethyl-4,6-dihydropyrrolo[3,4-c]pyrazole-5(1H)-carboxylate] | 3.27 | 95.5 | 
CN(C)C[C@@H](OC(=O)N1Cc2c(NC(=O)C3CCCCC3)n[nH]c2C1(C)C)c1ccccc1 [Example 13, (1S)-2-(dimethylamino)-1-phenylethyl 3-[(cyclohexylcarbonyl)amino]-6,6-dimethyl-4,6-dihydropyrrolo[3,4-c]pyrazole-5(1H)-carboxylate] | 3.9 | 109 | 
CN(C)C[C@@H](OC(=O)N1Cc2c(NC(=O)C3CCCO3)n[nH]c2C1(C)C)c1ccccc1 (stereo partly drawn) [Example 15, (1S)-2-(dimethylamino)-1-phenylethyl 6,6-dimethyl-3-[(tetrahydrofuran-2-ylcarbonyl)amino]-4,6-dihydropyrrolo[3,4-c]pyrazole-5(1H)-carboxylate] | 16.1 | 145 | 
CN(C)C[C@@H](OC(=O)N1Cc2c(NC(=O)C3CCCCO3)n[nH]c2C1(C)C)c1ccccc1 (stereo partly drawn) [Example 16, (1S)-2-(dimethylamino)-1-phenylethyl 6,6-dimethyl-3-[(tetrahydro-2H-pyran-2-ylcarbonyl)amino]-4,6-dihydropyrrolo[3,4-c]pyrazole-5(1H)-carboxylate] | 17.9 | 118 | 
CN(C)C[C@@H](OC(=O)N1Cc2c(NC(=O)C3CN(C)CCO3)n[nH]c2C1(C)C)c1ccccc1 (stereo partly drawn) [Example 17, (1S)-2-(dimethylamino)-1-phenylethyl 6,6-dimethyl-3-{[(4-methylmorpholin-2-yl)carbonyl]amino}-4,6-dihydropyrrolo[3,4-c]pyrazole-5(1H)-carboxylate] | 110 | 259 | 
CN(C)C[C@@H](OC(=O)N1Cc2c(NC(=O)Cc3ccc(F)cc3)n[nH]c2C1(C)C)c1ccccc1 [Example 18, (1S)-2-(dimethylamino)-1-phenylethyl 3-{[(4-fluorophenyl)acetyl]amino}-6,6-dimethyl-4,6-dihydropyrrolo[3,4-c]pyrazole-5(1H)-carboxylate] | 28.3 | 23.3 | 
COc1ccc(CC(=O)Nc2n[nH]c3c2CN(C(=O)O[C@H](CN(C)C)c2ccccc2)C3(C)C)cc1 [Example 19, (1S)-2-(dimethylamino)-1-phenylethyl 3-{[(4-methoxyphenyl)acetyl]amino}-6,6-dimethyl-4,6-dihydropyrrolo [3,4-c]pyrazole-5(1H)-carboxylate] | 67.8 | 7.87 | 
CN(C)C[C@@H](OC(=O)N1Cc2c(NC(=O)[C@@H]3C[C@H]3c3ccccc3)n[nH]c2C1(C)C)c1ccccc1 [Example 20, (1S)-2-(dimethylamino)-1-phenylethyl 6,6-dimethyl-3-({[trans-2-phenylcyclopropyl]carbonyl}amino)-4,6-dihydropyrrolo[3,4-c]pyrazole-5(1H)-carboxylate] | 80.2 | 8.13 | 
CN(C)CC(OC(=O)N1Cc2c(NC(=O)c3ccc(F)cc3)n[nH]c2C1(C)C)c1ccccc1 (centres unmarked) [Example 22] | 14.8 | 17.4 | 
Cc1cc(C(=O)Nc2n[nH]c3c2CN(C(=O)NC2CC2c2ccccc2)C3(C)C)n(C)n1 (stereo not drawn) [Example 113, 3-(1,3-dimethyl-1H-pyrazole-5-carboxamido)-6,6-dimethyl-N-[trans-(2-phenylcyclopropyl)]pyrrolo[3,4-c]pyrazole-5(1H,4H,6H)-carboxamide] |  |  | 65
CCc1ccc(C(=O)Nc2n[nH]c3c2CN(C(=O)NC2CC2c2ccccc2)C3(C)C)cc1 (stereo not drawn) [Example 114, 3-(4-ethylbenzamido)-6,6-dimethyl-N-[trans-(2-phenylcyclopropyl)]pyrrolo[3,4-c]pyrazole-5(1H,4H,6H)-carboxamide] |  |  | 70
CC1(C)c2[nH]nc(NC(=O)c3ccc(F)cc3)c2CN1C(=O)N[C@H](CN)c1ccccc1 [Example 115, N-[(1S)-2-amino-1-phenylethyl]-3-[(4-fluorobenzoyl)amino]-6,6-dimethyl-4,6-dihydropyrrolo[3,4-c]pyrazole-5(1H)-carboxamide] |  | 20.8 | 
CCC(=O)Nc1n[nH]c2c1CN(C(=O)O[C@H](CN(C)C)c1ccccc1)C2(C)C [Example 118, (S)-2-(dimethylamino)-1-phenylethyl 6,6-dimethyl-3-propionamidopyrrolo[3,4-c]pyrazole-5(1H,4H,6H)-carboxylate] |  | 226 | 
COC[C@@H](NC(=O)N1Cc2c(NC(=O)c3ccccc3)n[nH]c2C1(C)C)c1ccccc1 [Example 120, (S)-3-benzamido-N-(2-methoxy-1-phenylethyl)-6,6-dimethylpyrrolo[3,4-c]pyrazole-5(1H,4H,6H)-carboxamide] |  | 463 | 
